Laboratory results taken from patent US6709681B2, “Acidified nitrite as an antimicrobial agent” (Aberdeen University, priority 1995, dated 2004).
Where two headings read alike, the source gives them in different places.

Assays:
[1] = 45 minutes after ingestion of 200 mg potassium nitrate solution; fasting mean 114 μM
[2] = system: caries-producing organisms in dental plaque; C albicans; conditions: toothpaste, mouthwash or other orally acceptable vehicle
C albicans = system: C albicans
Protocol: With reference to FIG. 1 a single colony of C albicans was used to inoculate an overnight culture in Sabouraud's broth. 10 μl of this broth was added to 940 μl of a citrate/phosphate buffered Sabouraud's broth to which was added sodium nitrite (50 μl; final concentration 250 μM) or distilled water as a control. After one hour incubation at 37° C., 10 μl was removed and cultured in 190 μl standard Sabourauds broth with continual agitation (Gallenkamp orbital incubator) in a 96-well microtitre plate at 37° C. Growth was monitored by measurement of optical density at 570 nm at regular time intervals. The results are a mean of 16 separate experiments.
The open bars show the growth of C albicans measured by the optical density method following exposure to acid alone for 1 hour, while the closed bars show growth following exposure to acid and 250 μM sodium nitrite.

[3] = system: E coli (strain NCTC 10418)
Source text: The results shown in FIGS. 2A and 2B are a mean of 20 experiments.
The methods are those as for FIG. 2.

Row | SMILES | salivary nitrite (mean) [1] [µM] | reduction of caries-producing organisms in dental plaque / treatment or prevention of infection with C albicans [2] | killing of C albicans (C albicans; 5 nN nitrite, up to pH5) | survival of C albicans (growth by optical density) (C albicans; 250 μgM sodium nitrite, one hour, pH reduced to below 4) | elimination of C albicans (C albicans; pH 1, all concentrations above 250 μM (data not shown)) | effect on E coli ([3]; 250 μM nitrite, above pH4) | growth of E coli compared with control (acid alone) ([3]; 250 μM nitrite, pH 2, 3 and 4) | survival of E coli ([3]; 250 μM nitrite, pH2, one hour) | viability of E coli ([3]; 250 μM nitrite, pH3 and pH4) | toxic effect on E coli ([3]; pH3, 10 μM) | toxic effect on E coli ([3]; pH3, 1 mM)
1 | O=[N+]([O-])[O-].[K+] [potassium nitrate] | 1030 |  |  |  |  |  |  |  |  |  | 
2 | O=[N+]([O-])O [nitrate] |  | effective |  |  |  |  |  |  |  |  | 
3 | O=NO [sodium nitrite] |  | effective | killed C albicans | incrementally killed C albicans | effective in eliminating C albicans | no effect | significantly (p<0.05) impaired | eliminates E coli | significantly reduces the viability | discernable effect | killed E coli completely
